Legend:
LPAR1 [1] = target: T1, LPAR1 (Homo sapiens, UniProt Q92633); assay: LPAR1 FLIPR Assay; assay type: cell-based; details: U2OS cells stably expressing LPAR1, LPA (EC80), Calcium 6 FLIPR dye; for Emax: read-out: Maximum Inhibition
T1 construct: host or cells: U2OS
Outline: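 U2OS cells stably expressing LPAR1 were loaded with Calcium 6 dye for 2 h at 37° C, preincubated 3 min with compound (11-point 3-fold series), then stimulated with LPA at EC80. Fluorescence at 515-575 nm was recorded by FLIPR; IC50 came from four-parameter logistic fits of ratio data.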

LPAR1 [2] = target: T1, LPAR1; assay: IP-One HTRF Assay; assay type: cell-based; details: U2OS cells stably expressing LPAR1, LPA stimulation, IP-One Tb HTRF kit; for Emax: read-out: Maximum Inhibition
Experimental: U2OS cells stably expressing LPAR1 (Life Technologies #K1519A) were plated at 20000 cells/well in growth medium (McCoy's 5A(Life Technologies #16600-082)) with 10% dFBS (Life Technologies #26400-036), 0.1 mM non-essential amino acids, 25 mM HEPES, 1 mM sodium pyruvate, 1% penicillin/streptomycin, 50 μg/mL hygromycin, and 100 μg/mL Geneticin® in tissue culture treated 384-well white plates (Greiner #781080) in humidified 5% CO2 at 37° C. overnight. On the day of the assay, culture medium was replaced with 30 μL/well of McCoy's 5A with 0.1% BSA. Cells were incubated in humidified 5% CO2 at 37° C. for 3 more hours. Compounds were 3-fold serial diluted from 2 mM for 11-points using dimethyl sulfoxide. 1 μL of compound in DMSO was diluted in 50 μL stimulation buffer from an IP-One Tb HTRF kit (Cisbio #62IPAPEB) immediately before assay. 15 μL/well of 1.33× compound in stimulation buffer was added to cells after removal of culture medium. After 20 minutes of incubation at 37° C., 5 μL/well of 8 μM LPA diluted in stimulation buffer with 0.1% fatty acid free BSA was added to cells. […]. To EC100 wells were added 4×20 μM LPA. To the cells were added 5 μL/well IP1-d2 conjugate and 5 μLwell IP1-K antibody after 2 hours of incubation at 37° C. Cells were incubated at room temperature for 1 hour (protected from light). The plate was then read at 665 nm and 615 nm using an EnVision® Multilabel Plate Reader. IC50 values were calculated from curve fits of the ratio data using a four-parameter logistic Hill equation (Assay Explorer 3.3 Client).

T1 sequence (Q92633 whole entry): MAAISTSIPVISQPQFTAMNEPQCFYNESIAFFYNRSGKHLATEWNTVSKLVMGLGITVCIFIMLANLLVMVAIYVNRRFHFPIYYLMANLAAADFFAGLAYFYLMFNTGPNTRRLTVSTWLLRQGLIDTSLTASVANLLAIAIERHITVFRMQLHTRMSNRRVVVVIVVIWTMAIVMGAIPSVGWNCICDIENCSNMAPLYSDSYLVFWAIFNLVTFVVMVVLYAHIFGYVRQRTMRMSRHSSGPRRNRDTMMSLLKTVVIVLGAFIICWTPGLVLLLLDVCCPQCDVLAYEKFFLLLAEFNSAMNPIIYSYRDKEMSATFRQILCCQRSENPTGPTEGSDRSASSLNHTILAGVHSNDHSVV

Compound | IC50 (LPAR1 [1]) | Emax (LPAR1 [1]) | IC50 (LPAR1 [2]) | Emax (LPAR1 [2])
COc1cc(C(=O)N(CCCc2cccc(F)c2)CCOCC(=O)O)cc(OC)c1C [Example 129, (2-{(3,5-dimethoxy-4-methylbenzoyl)[3-(3-fluorophenyl)propyl]amino}ethoxy)acetic Acid] | 20 nM | 93% | 1310 nM | 96%
COc1cc(C(=O)N(CCCc2cccc(Cl)c2)CCSCC(=O)O)cc(OC)c1C [Example 122, [(2-{[3-(3-chlorophenyl)propyl](3,5-dimethoxy-4-methylbenzoyl)amino}ethyl)sulfanyl]acetic Acid] | 10 nM | 95% | 134 nM | 78%
COc1cc(C(=O)N(CCCCC(=O)O)CCCc2ccccc2)cc(OC)c1Br [Example 20, 5-[(4-bromo-3,5-dimethoxybenzoyl)(3-phenylpropyl)amino]pentanoic Acid] | 20 nM | 99% | 50 nM | 102%
COc1cc(C(=O)N(CCCc2ccccc2)CCOCP(=O)(O)O)cc(OC)c1C [Example 50, ({2-[(3,5-dimethoxy-4-methylbenzoyl)(3-phenylpropyl)amino]ethoxy}methyl)phosphonic Acid] | 3 nM | 101% | 3 nM | 85%
COc1cc(C(=O)N(CCCc2ccccc2)CCOCC(=O)O)cc(OC)c1C [Example 6, {2-[(3,5-dimethoxy-4-methylbenzoyl)(3-phenylpropyl)amino]ethoxy}acetic Acid] | 11 nM | 94% | 183 nM | 97%
COc1cc(C(=O)N(CCCCC(=O)O)CCCc2cccc(Cl)c2)cc(OC)c1C [Example 38, 5-{[3-(3-chlorophenyl)propyl](3,5-dimethoxy-4-methylbenzoyl)amino}pentanoic Acid] | 14 nM | 99% | 194 nM | 90%
COc1cc(C(=O)N(CCCc2ccccc2)CCSCCC(=O)O)cc(OC)c1C [Example 60, 3-({2-[(3,5-dimethoxy-4-methylbenzoyl)(3-phenylpropyl)amino]ethyl}sulfanyl)propanoic Acid] | 20 nM | 95% | 208 nM | 82%
COc1cc(OC)cc(C(=O)N(CCCCC(=O)O)CCCc2cccc(Cl)c2)c1 [Example 91, 5-{[3-(3-chlorophenyl)propyl](3,5-dimethoxybenzoyl)amino}pentanoic Acid] | 25 nM | 89% | 285 nM | 70%
COc1cc(C(=O)N(CCCc2ccccc2)CC(=O)NC2(C(=O)O)CC2)cc(OC)c1C [Example 3, 1-{[N-(3,5-dimethoxy-4-methylbenzoyl)-N-(3-phenylpropyl)glycyl]amino}cyclopropane-1-carboxylic Acid] | 71 nM | 52% | 4270 nM | 76%
COc1cc(C(=O)N(CCCc2ccccc2)CCSCC(=O)O)cc(OC)c1C [Example 44, ({2-[(3,5-dimethoxy-4-methylbenzoyl)(3-phenylpropyl)amino]ethyl}sulfanyl)acetic Acid] | 8 nM | 96% | 223 nM | 80%
COc1cc(C(=O)N(CCCCC(=O)O)CCCc2cccc(F)c2)cc(OC)c1C [Example 33, 5-{(3,5-dimethoxy-4-methylbenzoyl)[3-(3-fluorophenyl)propyl]amino}pentanoic Acid] | 19 nM | 99% | 166 nM | 76%
COc1cc(C(=O)N(CCCCC(=O)NS(C)(=O)=O)CCCc2ccccc2)cc(OC)c1C [Example 111, N-{5-[(methanesulfonyl)amino]-5-oxopentyl}-3,5-dimethoxy-4-methyl-N-(3-phenylpropyl)benzamide] | 28 nM | 95% | 570 nM | 80%
COc1cc(C(=O)N(CCCc2ccccc2)CCC[C@@H](C)C(=O)O)cc(OC)c1C (single isomer, unassigned) [Example 77] | 20 nM | 100% | 77 nM | 84%
COc1cc(C(=O)N(CCCCC(=O)O)CCCc2ccc(F)cc2)cc(OC)c1C [Example 34, 5-{(3,5-dimethoxy-4-methylbenzoyl)[3-(4-fluorophenyl)propyl]amino}pentanoic Acid] | 24 nM | 96% | 880 nM | 70%
COc1ccc(C2(C(=O)N(CCCc3ccccc3)CCSCC(=O)O)CC2)cc1 [Example 115, [(2-{[1-(4-methoxyphenyl)cyclopropane-1-carbonyl](3-phenylpropyl)amino}ethyl)sulfanyl]acetic Acid] | 30 nM | 78% | 2910 nM | 71%
COc1cc(C(=O)N(CCCCC(=O)O)CCCc2ccccc2)cc(OC)c1C [Example 4, 5-[(3,5-dimethoxy-4-methylbenzoyl)(3-phenylpropyl)amino]pentanoic Acid] | 14 nM | 98% | 115 nM | 93%
COc1cc(C(=O)N(CCCc2ccc(C)o2)CCSCC(=O)O)cc(OC)c1C [Example 132, [(2-{(3,5-dimethoxy-4-methylbenzoyl)[3-(5-methylfuran-2-yl)propyl]amino}ethyl)sulfanyl]acetic Acid] | 10 nM | 86% | 220 nM | 80%
COc1cc(C(=O)N(CCCc2ccccc2)CCSC(C)CC(=O)O)cc(OC)c1C (centres unmarked) [Example 62, 3-({2-[(3,5-dimethoxy-4-methylbenzoyl)(3-phenylpropyl)amino]ethyl}sulfanyl)butanoic Acid] | 29 nM | 97% | 291 nM | 75%
COc1cc(C(=O)N(CCCc2ccccc2)CCOCC(=O)NS(C)(=O)=O)cc(OC)c1C [Example 157, N-(2-{2-[(methanesulfonyl)amino]-2-oxoethoxy}ethyl)-3,5-dimethoxy-4-methyl-N-(3-phenylpropyl)benzamide] | 16 nM | 92% | 920 nM | 75%
COc1cc(C(=O)N(CCCc2ccccc2F)CCOCC(=O)O)cc(OC)c1C [Example 110, (2-{(3,5-dimethoxy-4-methylbenzoyl)[3-(2-fluorophenyl)propyl]amino}ethoxy)acetic Acid] | 16 nM | 90% | 902 nM | 82%
COc1cc(C(=O)N(CCCc2cccc(Cl)c2)CCOCC(=O)O)cc(OC)c1C [Example 109, (2-{[3-(3-chlorophenyl)propyl](3,5-dimethoxy-4-methylbenzoyl)amino}ethoxy)acetic Acid] | 15 nM | 93% | 809 nM | 85%
COc1cc(C(=O)N(CCCCC(=O)O)CCCc2ccccc2)cc(OC)c1C1CC1 [Example 35, 5-[(4-cyclopropyl-3,5-dimethoxybenzoyl)(3-phenylpropyl)amino]pentanoic Acid] | 32 nM | 98% | 59 nM | 94%
COc1cc(C(=O)N(CCCCC(=O)O)CCCc2ccco2)cc(OC)c1C [Example 173, 5-{(3,5-dimethoxy-4-methylbenzoyl)[3-(furan-2-yl)propyl]amino}pentanoic Acid] | 29 nM | 74% | 523 nM | 75%
COc1cc(C(=O)N(CCCc2ccccc2Cl)CCOCC(=O)O)cc(OC)c1C [Example 131, (2-{[3-(2-chlorophenyl)propyl](3,5-dimethoxy-4-methylbenzoyl)amino}ethoxy)acetic Acid] | 21 nM | 86% | 1480 nM | 101%
COc1cc(C(=O)N(CCCc2ccccc2)CCCC(C)(C)C(=O)O)cc(OC)c1C [Example 57, 5-[(3,5-dimethoxy-4-methylbenzoyl)(3-phenylpropyl)amino]-2,2-dimethylpentanoic Acid] | 35 nM | 100% | 62 nM | 95%
COc1cc(C(=O)N(CCCCC(=O)O)CCCc2ccccc2F)cc(OC)c1C [Example 32, 5-{(3,5-dimethoxy-4-methylbenzoyl)[3-(2-fluorophenyl)propyl]amino}pentanoic Acid] | 18 nM | 98% | 321 nM | 88%

— patent US20190119200A1, “TERTIARY AMIDES AND METHOD OF USE” (AbbVie Inc., priority 2016, published 2019)
